{"source": "patent US4029801A", "about": "“Pharmaceutical compositions and methods of treating hypertension” (priority 1970, dated 1977)", "key": {"blood pressure": {"tested_on": "blood pressure", "assay": "Tests for action on the cardiovascular system: hypotensive activity (activity in method 1, rats or cats, or method 2), reported in words", "format": "in vivo, rat, cat", "details": "standard test procedure, result in words", "procedure": "Tests for action on the cardiovascular system were conducted according to one of the following procedures:\nCats were anaesthetised with pentobarbitone sodium (30 mg/kg) and the cephalic vein, femoral and carotid arteries and trachea were cannulated. The carotid cannula was introduced into the left ventricle and the femoral cannula into the aorta. Blood pressure and heart rate were recorded from the aortic cannula and left ventricular pressure from the carotid cannula. The test compunds were administered intravenously (0.1-25.6 mg/kg).\nMethod 2 (hypertensive rats)\nMale or female rats are rendered hypertensive by applying a figure of 8 ligature around one kidney and contralateral nephrectomy. Blood pressure stabilises at a hypertensive level after 6 weeks. Systolic pressure is measured indirectly using a Decker Caudal Plethysmograph A control group of rats is run with each group treated with drug. Each group usually consists of six rats. Drugs are usually administered by the IP or oral routes. Pressures are read prior to drug administration and at two and 24 hours thereafter."}, "[1]": {"tested_on": "blood pressure and heart rate", "assay": "Method 1 (rat): hypotensive activity in anaesthetised rats, i.v.", "details": "Rattus norvegicus, iv, 0.25 h, read-out: Hypotensive Activity", "description": "Rats were anaesthetised with pentobarbitone sodium (60 mg/kg) and the jugular vein, trachea and carotid artery were cannulated. […] A decrease in heart rate of more than 30% from control values was considered to be significant bradycardia."}}, "data": [{"smiles": "O=C(NC1CCN(CC(O)c2ccc[nH]2)CC1)c1ccccc1", "note": "(stereo not drawn) [Example 98, 1-[2-Hydroxy-2-(2-pyrrol-2-yl)ethyl]-4-benzamidopiperidine]", "values": [{"measurement": "hypotensive activity", "setting": "blood pressure", "value": "hypotensive activity"}]}, {"smiles": "O=C(CCCN1CCC(NC(=O)c2ccccc2)CC1)Nc1ccccc1", "note": "[Example 50, N-Phenyl-4-(p-benzamidopiperid-1-yl)butyramide]", "values": [{"measurement": "hypotensive activity", "setting": "blood pressure", "value": "hypotensive activity"}, {"measurement": "minimal effective dose", "setting": "[1]", "value": "6.4 to 12.8", "unit": "mg/kg"}]}, {"smiles": "O=C(CN1CCC(NC(=O)c2ccccc2)CC1)c1ccc(O)c(O)c1", "note": "[Example 11, 1-[2-(3,4-Dihydroxyphenyl)-2-oxoethyl]-4-benzamidopiperidine]", "values": [{"measurement": "hypotensive activity", "setting": "blood pressure", "value": "marked hypotensive activity"}, {"measurement": "minimal effective dose", "setting": "[1]", "value": "1.6 to 3.2", "unit": "mg/kg"}]}, {"smiles": "O=C(NC1CCN(Cc2ccccc2)CC1)c1ccccc1", "note": "[Example 30, 1-Benzyl-4-benzamidopiperidine]", "values": [{"measurement": "minimal effective dose", "setting": "[1]", "value": 25.6, "unit": "mg/kg"}]}, {"smiles": "COc1ccc(C(=O)CCCN2CCC(NC(=O)c3ccccc3)CC2)cc1", "note": "[Example 77, 4-Benzamido-1-[4-(4-methoxyphenyl)-4-oxobutyl]piperidine]", "values": [{"measurement": "minimal effective dose", "setting": "[1]", "value": "6.4 to 12.8", "unit": "mg/kg"}]}, {"smiles": "O=C(NC1CCN(CCC2CCCCC2)CC1)c1ccccc1", "note": "[Example 1, 1-[2-(Cyclohexyl)ethyl]-4-benzamidopiperidine]", "values": [{"measurement": "hypotensive activity", "setting": "blood pressure", "value": "good hypotensive activity"}, {"measurement": "minimal effective dose", "setting": "[1]", "value": "1.6 to 3.2", "unit": "mg/kg"}]}, {"smiles": "O=C(NC1CCN(CCCC(c2ccccc2)c2ccccc2)CC1)c1ccccc1", "note": "[Example 90, 4-(4-Benzamidopiperid-1-yl)-1,1-diphenyl butane]", "values": [{"measurement": "hypotensive activity", "setting": "blood pressure", "value": "hypotensive activity"}, {"measurement": "minimal effective dose", "setting": "[1]", "value": "6.4 to 12.8", "unit": "mg/kg"}]}, {"smiles": "COc1ccc(CCN2CCC(NC(=O)c3ccccc3)CC2)cc1", "note": "[Example 49, 4-Benzamido-1-[2-(p-methoxyphenyl)ethyl]piperidine]", "values": [{"measurement": "hypotensive activity", "setting": "blood pressure", "value": "hypotensive activity"}, {"measurement": "minimal effective dose", "setting": "[1]", "value": "6.4 to 12.8", "unit": "mg/kg"}]}, {"smiles": "O=C(NC1CCN(CCc2ccccc2[N+](=O)[O-])CC1)c1ccccc1", "note": "[Example 33, 1-[2-(o-Nitrophenyl)ethyl]-4-benzamido-piperidine]", "values": [{"measurement": "hypotensive activity", "setting": "blood pressure", "value": "hypotensive activity"}, {"measurement": "minimal effective dose", "setting": "[1]", "value": "6.4 to 12.8", "unit": "mg/kg"}]}, {"smiles": "O=C(NC1CCN(CCc2ccc3ccccc3c2)CC1)C1CCCCC1", "note": "[Example 84]", "values": [{"measurement": "hypotensive activity", "setting": "blood pressure", "value": "hypotensive activity"}, {"measurement": "minimal effective dose", "setting": "[1]", "value": "6.4 to 12.8", "unit": "mg/kg"}]}, {"smiles": "O=C(CCCN1CCC(NC(=O)c2ccccc2)CC1)c1ccc2ccccc2c1", "note": "[Example 80, 1-[4-(2-Naphthyl)-4-oxobutyl]-4-benzamidopiperidine]", "values": [{"measurement": "hypotensive activity", "setting": "blood pressure", "value": "hypotensive activity"}, {"measurement": "minimal effective dose", "setting": "[1]", "value": "1.6 to 3.2", "unit": "mg/kg"}]}, {"smiles": "COc1ccc(CCN2CCC(NC(=O)c3ccccc3)CC2)cc1OC", "note": "[Example 5, 1-[2-(3,4-Dimethoxyphenyl)ethyl]-4-benzamidopiperidine]", "values": [{"measurement": "minimal effective dose", "setting": "[1]", "value": "< 30", "unit": "mg/kg"}]}, {"smiles": "CC(C(=O)c1ccc(O)cc1)N1CCC(NC(=O)c2ccccc2)CC1", "note": "(stereo not drawn) [Example 64, 1-[1-Methyl-2-(4-hydroxy)phenyl-2-oxoethyl]-4-benzamidopiperidine]", "values": [{"measurement": "minimal effective dose", "setting": "[1]", "value": "< 30", "unit": "mg/kg"}]}, {"smiles": "CC(C(O)c1ccc(O)cc1)N1CCC(NC(=O)c2ccccc2)CC1", "note": "(stereo not drawn) [Example 65, 1-[1-Methyl-2-(4-hydroxy)phenyl-2-hydroxyethyl]-4-benzamidopiperidine]", "values": [{"measurement": "hypotensive activity", "setting": "blood pressure", "value": "hypotensive activity"}, {"measurement": "minimal effective dose", "setting": "[1]", "value": 25.6, "unit": "mg/kg"}]}, {"smiles": "Cc1cc(CN2CCC(NC(=O)c3ccccc3)CC2)c(C)n1-c1ccccc1", "note": "[Example 99, 1-(2,5-Dimethyl-1-phenylpyrrol-3-yl-methyl)-4-benzamidopiperidine]", "values": [{"measurement": "hypotensive activity", "setting": "blood pressure", "value": "hypotensive activity"}, {"measurement": "minimal effective dose", "setting": "[1]", "value": "< 30", "unit": "mg/kg"}]}, {"smiles": "O=C(NC1CCN(CCC=C(c2ccccc2)c2ccccc2)CC1)c1ccccc1", "note": "[Example 89, 4-(4-Benzamidopiperid-1-yl)-1,1-diphenylbut-l-ene]", "values": [{"measurement": "hypotensive activity", "setting": "blood pressure", "value": "hypotensive activity"}, {"measurement": "minimal effective dose", "setting": "[1]", "value": "6.4 to 12.8", "unit": "mg/kg"}]}, {"smiles": "Cc1ccc(CCN2CCC(NC(=O)c3ccccc3)CC2)cc1C", "note": "[Example 41, 1-[2-(3,4-Dimethylphenyl)ethyl]-4-benzamidopiperidine]", "values": [{"measurement": "hypotensive activity", "setting": "blood pressure", "value": "hypotensive activity"}, {"measurement": "minimal effective dose", "setting": "[1]", "value": "6.4 to 12.8", "unit": "mg/kg"}]}, {"smiles": "O=C(CCCN1CCC(NC(=O)c2ccccc2)CC1)c1ccc(Br)cc1", "note": "[Example 71, 4-Benzamido-1-[4-(4-bromophenyl)-4-oxobutyl]piperidine]", "values": [{"measurement": "minimal effective dose", "setting": "[1]", "value": 25.6, "unit": "mg/kg"}]}, {"smiles": "O=C(NC1CCN(CCc2ccc3ccccc3n2)CC1)c1ccccc1", "note": "[Example 95, 1-[2-(2-Quinolyl)ethyl]-4-benzamidopiperidine]", "values": [{"measurement": "hypotensive activity", "setting": "blood pressure", "value": "marked hypotensive activity"}]}, {"smiles": "COc1cc(CCN2CCC(NC(=O)c3ccccc3)CC2)cc(OC)c1OC", "note": "[Example 8, 1-[2-(3,4,5-Trimethoxyphenyl)ethyl]-4-benzamidopiperidine]", "values": [{"measurement": "minimal effective dose", "setting": "[1]", "value": "6.4 to 12.8", "unit": "mg/kg"}]}, {"smiles": "O=C(CCN1CCC(NC(=O)c2ccccc2)CC1)c1ccc2c(c1)OCCO2", "note": "[Example 91, 1-[3-(1,4-Benzodioxan-6-yl)-3-oxopropyl]-4-benzamidopiperidine]", "values": [{"measurement": "hypotensive activity", "setting": "blood pressure", "value": "hypotensive activity"}, {"measurement": "minimal effective dose", "setting": "[1]", "value": 25.6, "unit": "mg/kg"}]}, {"smiles": "Cc1cc2c(cc1C(O)CN1CCC(NC(=O)c3ccccc3)CC1)C(C)(C)CC(C)C2(C)C", "note": "(stereo not drawn) [Example 67, 7-[2-(4-Benzamidopiperid-1-yl)-1-hydroxyethyl]-1,1,3,4,4,6-Hexamethyl-1,2,3,4-tetrahydronaphthalene]", "values": [{"measurement": "hypotensive activity", "setting": "blood pressure", "value": "hypotensive activity"}]}, {"smiles": "O=C(NC1CCN(CCCC(O)c2ccccc2)CC1)c1ccccc1", "note": "(stereo not drawn) [Example 53, 4-Benzamido-1-(4-phenyl-4-hydroxybutyl)piperidine]", "values": [{"measurement": "hypotensive activity", "setting": "blood pressure", "value": "hypotensive activity"}, {"measurement": "minimal effective dose", "setting": "[1]", "value": "6.4 to 12.8", "unit": "mg/kg"}]}, {"smiles": "O=C(NC1CCN(CCCC(O)c2ccc3ccccc3c2)CC1)c1ccccc1", "note": "(stereo not drawn) [Example 83, 1-[4-(2'-Naphthyl)-4-hydroxybutyl]-4-benzamidpiperidine]", "values": [{"measurement": "hypotensive activity", "setting": "blood pressure", "value": "hypotensive activity"}, {"measurement": "minimal effective dose", "setting": "[1]", "value": "1.6 to 3.2", "unit": "mg/kg"}]}, {"smiles": "O=C(CN1CCC(NC(=O)c2ccccc2)CC1)c1ccc2c(c1)CCCC2", "note": "[Example 56, 1-[2-(1,2,3,4-Tetrahydro-6-napthyl)-2-oxoethyl]-4-benzamidopiperidine]", "values": [{"measurement": "hypotensive activity", "setting": "blood pressure", "value": "hypotensive activity"}, {"measurement": "minimal effective dose", "setting": "[1]", "value": "6.4 to 12.8", "unit": "mg/kg"}]}, {"smiles": "O=C(NC1CCN(CC(O)c2ccc3c(c2)CCCC3)CC1)c1ccccc1", "note": "(stereo not drawn) [Example 57, 1-[2-(1,2,3,4-Tetrahydro-6-naphthyl)-2-hydroxyethyl]-4-benzamido-piperidine]", "values": [{"measurement": "hypotensive activity", "setting": "blood pressure", "value": "hypotensive activity"}, {"measurement": "minimal effective dose", "setting": "[1]", "value": "1.6 to 3.2", "unit": "mg/kg"}]}, {"smiles": "Cc1ccc(C(=O)NC2CCN(Cc3ccccc3)CC2)cc1", "note": "[Example 32, 1-Benzyl-4-(p-methylbenzamido)piperidine]", "values": [{"measurement": "minimal effective dose", "setting": "[1]", "value": "< 30", "unit": "mg/kg"}]}, {"smiles": "O=C(NC1CCN(CCC=C(c2ccc(F)cc2)c2ccc(F)cc2)CC1)c1ccccc1", "note": "[Example 87, 4-(4-Benzamidopiperid-1-yl)-1,1-(di-p-fluorophenyl)but-l-ene]", "values": [{"measurement": "hypotensive activity", "setting": "blood pressure", "value": "hypotensive activity"}, {"measurement": "minimal effective dose", "setting": "[1]", "value": 25.6, "unit": "mg/kg"}]}, {"smiles": "COc1ccc(CCN2CCC(NC(=O)c3ccccc3Cl)CC2)cc1OC", "note": "[Example 6, 1-[2-(3,4-Dimethoxyphenyl)ethyl]-4-(2-chlorobenzamido)-piperidine]", "values": [{"measurement": "hypotensive activity", "setting": "blood pressure", "value": "hypotensive activity"}, {"measurement": "minimal effective dose", "setting": "[1]", "value": 25.6, "unit": "mg/kg"}]}, {"smiles": "C[N+]1(CCCC(=O)c2ccccc2)CCC(NC(=O)c2ccccc2)CC1", "note": "(stereo not drawn) [Example 82, 4-Benzamido-1-methyl-1-(4-phenyl-4-oxobutyl)piperidinium iodide]", "values": [{"measurement": "hypotensive activity", "setting": "blood pressure", "value": "hypotensive activity"}]}, {"smiles": "Cl.O=C(NC1CCN(CCc2ccccc2)CC1)c1ccccc1", "note": "[Example 59, 1-Phenethyl-4-benzamidopiperidine hydrochloride]", "values": [{"measurement": "hypotensive activity", "setting": "blood pressure", "value": "hypotensive activity"}]}, {"smiles": "O=C(NC1=CCN(CCc2ccccc2)CC1)c1ccccc1", "note": "[Example 26, 1-Phenethyl-4-benzamido-1,2,5,6-tetrahydropyridine]", "values": [{"measurement": "hypotensive activity", "setting": "blood pressure", "value": "hypotensive activity"}]}]}
